# Measurements from patent publication US20170260169A1, “INHIBITORS FOR STEROID RESPONSE ELEMENTS AND RNA POLYMERASE II AND RELATED METHODS” (priority 2007, published 2017).
# How the values were obtained:
# [1] = Multiple-dose subcutaneous injections, male C57BL/6J mice; type: in vivo; conditions: 1 mg/kg SC every 3 days
# How it was run: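 Eight-week-old male C57BL/6J mice (n=3 per group) received 1 mg/kg polyamide subcutaneously every 3 days for three injections and were sacrificed two days after the last dose. Serum was collected by retroorbital bleeding for analysis, and two mice per group underwent histopathology.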
# p53 = p53 protein ELISA in LNCaP cells; type: cell-based; conditions: polyamide 10 μM 72 hr; doxorubicin 1 μM 24 hr
# Protocol: Cellular levels of RPB1 and p53 protein in LNCaP cells after treatment with 10 μM 3 for 72 h were determined by ELISA. Cells treated with DMSO vehicle and 1 μM doxorubicin for 24 h were used as control. Cellular RBP1 levels were determined by a RPB1 specific ELISA kit (Cusabio Life Sciences) according to manufacturer's instructions. Total cellular p53 protein level was determined with a pan-p53 ELISA kit (Roche) according to manufacturer's instructions. Assays were performed in biological triplicates.
# [2] = test system: PSA mRNA expression in LNCaP cells; experiment: DHT-induced PSA mRNA in LNCaP cells, quantitative real-time RT-PCR; type: cell-based
# Protocol: LNCaP cells (ATCC) were plated in 24-well plates at a density of 40-50×10^3 cells per well (80-100×10^3 cells per ml) in RPMI medium 1640 (ATCC) supplemented with 10% FBS (Irvine Scientific, Santa Ana, Calif.). After 72 h, the medium was replaced with RPMI medium 1640 containing 10% charcoal stripped FBS with or without polyamides at the designated concentrations. Cells were grown for an additional 48 h and then treated with 1 nM DHT for 16 h. When appropriate, bicalutamide was added 2 h before DHT stimulation. Isolation of RNA and cDNA synthesis was performed as described (21). Quantitative real-time RT-PCR was performed with SYBR Green PCR Master Mix (Applied Biosystems, Foster City, Calif.) on an ABI 7300 instrument. PSA mRNA was measured relative to β-glucuronidase as an endogenous control.
# [3] = test system: duplex DNA containing the target site 5′-WGWWCW-3′; experiment: Thermal denaturation assay of DNA duplexes; type: binding; conditions: duplex 5′-CGATGTTCAAGC-3′
# Protocol: Polyamides 77 and 85 were incubated with duplex DNA 5′-[…]-3′ (SEQ ID NO:36), which contains the predicted target site for these compounds (underscore). Melting temperature analyses were performed on a Varian Cary 100 spectrophotometer as described (46). Melting temperatures were defined as a maximum of the first derivative of absorbance at 260 nm over the range of temperatures.
# Thermal stabilization of the DNA oligo 5′-[…]-3′ (SEQ ID NO:37) by 77-80 (target sequence underlined) was determined as previously described (26).
# p53 target genes = experiment: Quantitative RT-PCR of p53 target genes in LNCaP cells; type: cell-based
# Protocol: RNA was extracted using RNEasy columns (Qiagen) according to manufacturer's protocols. cDNA was generated from RNA by reverse transcriptase (Transcriptor First Strand cDNA kit, Roche). Quantitative real-time RT-PCR was performed using SYBR Green PCR Master Mix (Applied Biosystems) on an ABI 7300 instrument. mRNA was measured relative to B glucuronidase as an endogenous control.
# The cells were then treated with 1, 3, and 10 μM of 78 for 72 h. Total cellular RNA was extracted using RNEasy columns (Qiagen) following the manufacturer's protocols. Isolated RNA was reverse transcribed with Transcriptor First Strand cDNA kit (Roche). Quantitative real-time PCR was performed using SYBR Green PCR Master Mix (Applied Biosystems) on an ABI 7300 instrument. Amplification of p21, IGFBP3, and GADD45A cDNA was measured relative to β-glucuronidase using previously published primers (24). Experiments were performed in biological replicates.
# [4] = Serum circulation after subcutaneous injection in C57BL/6 mice; type: in vivo; conditions: 120 nmol, 5% DMSO/PBS
# Protocol: To investigate if polyamide 77 could be detected in peripheral blood after SC injections, 120 nmol of 77 (in 5% DMSO/PBS) was injected into the right flank of four C57BL/6 mice. Blood was collected from anesthetized mice via retroorbital collection at 5 minutes, 4 h, and 12 h after injection, then processed by methods previously described and analyzed by HPLC (35). For measurement of serum PSA (KLK3) and uric acid, blood was collected from anesthetized mice via retroorbital collection at experimental endpoint and serum was separated from blood by centrifugation. Serum PSA (KLK3) was measured by ELISA (R&D systems) according to manufacturer's instructions. Uric acid was measured as described (36).
# We synthesized four structurally related polyamides (FIG. 28) that have an identical Py-Im sequence ImPyPyPy-γ-ImPyPyPy-NHMe-IPA.
# [5] = test system: transcripts in DHT-stimulated LNCaP cells; experiment: Gene expression with Affymetrix Human Genome U133 Plus 2.0 arrays, DHT-stimulated LNCaP cells; type: cell-based
# Protocol: LNCaP cells were plated in 12-well plates at a density of 80-100×10^3 cells per well. Media, polyamide treatments, and time courses were the same as described above. Bicalutamide was added 2 h before DHT stimulation. RNA was isolated as described in ref. 21. From this point, experiments were carried out at the Millard and Muriel Jacobs Gene Expression Facility at the California Institute of Technology. Labeled mRNA was hybridized to Affymetrix high-density Human Genome U133 Plus 2.0 arrays according to established protocols. Gene expression was analyzed by using Resolver (Rosetta Biosoftware, Seattle, Wash.). Data were uploaded to the Gene Expression Omnibus repository (accession no. GSE7708).
# Global effects of polyamides 1 and 2 and bicalutamide on gene expression in DHT-stimulated LNCaP cells were monitored with Affymetrix (Santa Clara, Calif.) high-density Human Genome U133 Plus 2.0 arrays, which interrogate >50,000 transcripts.
# LNCaP cells = experiment: Cell viability WST-1 assay; type: cell-based; conditions: LNCaP
# Protocol: LNCaP cells were plated in clear bottom 96 well plates at 5,000-7,500 cells per well. The cells were allowed to adhere for 24-36 h before compounds were added in fresh media. Cell viability was determined by the WST-1 assay (Roche) for 77 and 85 after 24 h or 72 h incubation with cells. Cells in cytotoxicity rescue experiments were treated with 85 alone or with 3 μM for 24 h.
# LNCaP cells were plated in clear bottom 96-well plates at 5,000-7,500 cells per well and allowed to adhere for 36-48 h. Compounds were then added in fresh media. Cell metabolic activity was determined by the WST-1 assay (Roche) after 72-h incubation with cells. Quantification was performed on a Perkin Elmer Victor 3 plate reader. Assays were performed in biological triplicates.
# [6] = 10 μM, + DHT, relative to DHT-induced controls, p ≦ 0.01
# [7] = relative to DHT-induced controls, + DHT
smiles,measurement,setting,value
"CN(CCCNC(=O)c1cccc(C(=O)O)c1)CCCNC(=O)c1cc(NC(=O)c2cc(NC(=O)c3cc(NC(=O)c4nc(NC(=O)[C@H](N)CCNC(=O)c5cc(NC(=O)c6cc(NC(=O)c7cc(NC(=O)c8nccn8C)cn7C)cn6C)cn5C)cn4C)cn3C)cn2C)cn1C [Polyamide 1, ImPyPyPy-2-(R)H^2Nγ-ImPyPyPy-NHMe-IPA]",liver and kidney histopathology,[1],"mild multifocal hepatocellular necrosis and apoptosis in the liver and mild variable tubular attenuation, karyomegaly and epithelial necrosis and apoptosis in the kidney"
same,liver and kidney serum markers,[1],elevated AST and ALT
same,weight and physical morbidity,"[1]; three injections, listed as 77",no loss in weight or physical morbidities
same,cellular level of p53 protein,p53,increases
same,AR mRNA,[2],minimally affected
same,effects on cell growth,"[2]; LNCaP, over the course of the experiment",no obvious detrimental effects on cell growth
same,DNA thermal stability analysis,[3],comparable DNA binding
same,induction of p53 target genes,p53 target genes,induced expression of p53 genes
same,circulation after SC injection,[4],detectable circulation
same,Number of transcripts down-regulated (fold change ≦ −2.0),[5]; [6],706
same,Number of transcripts down-regulated (fold change ≦ −4.0),[5]; [6],126
same,Number of transcripts up-regulated (fold change ≧ 2.0),[5]; [6],347
same,Number of transcripts up-regulated (fold change ≧ 4.0),[5]; [6],42
same,number of transcripts affected by at least 2-fold,"[5]; 10 μM, P≦0.01, vs DHT-induced controls","1,053"
same,share of interrogated transcripts affected,"[5]; 10 μM, at least 2-fold",less than 2%
same,share of transcripts induced at least 4-fold by DHT whose expression is inhibited,[5]; LNCaP cells,≈ 35%
same,number of the 88 DHT-repressed transcripts derepressed at least 2-fold,[5]; P≦0.01,eight
same,number of the 199 DHT-induced transcripts inhibited at least 2-fold,[5]; P≦0.01,70
same,Fold-change of FKBP5,[5]; [7],−3.1
same,Fold-change of KLK2,[5]; [7],−2.4
same,Fold-change of KLK3 (PSA),[5]; [7],−3.3
same,Fold-change of TMPRSS2,[5]; [7],−2.3
same,cytotoxicity after 24 h treatment,LNCaP cells,minimal cytotoxicity is seen at 24 h
